Source: patent US11345956B2, “Methods and compositions related to prostate cancer therapeutics” (The Johns Hopkins University, priority 2014, dated 2022)
Where two headings read alike, the source gives them in different places.

Tested on: metastatic castration-resistant prostate cancer (CRPC)
Details: for median overall survival (OS): preliminary survival analysis; for PSA response rate (≥50% PSA decline from baseline, maintained ≥4 weeks): all patients of the cohort; for HR for PFS, AR-V7 presence / HR for PSA-PFS, AR-V7 presence: multivariable Cox model adjusting for AR-FL expression and prior use of the alternative AR-directed agent; for HR for PFS, AR-FL levels / HR for PSA-PFS, AR-FL levels / HR for PFS, previous use of alternative AR-directed agent / HR for PSA-PFS, previous use of alternative AR-directed agent: multivariable Cox model; for HR for PFS, AR-FL levels / HR for PSA-PFS, AR-FL levels: covariate AR-FL level; for HR for PFS, previous use of alternative AR-directed agent / HR for PSA-PFS, previous use of alternative AR-directed agent: previous abiraterone (enzalutamide cohort) or previous enzalutamide (abiraterone cohort); for Hazard Ratio (HR) for PFS, variable AR-FL Level (log) / Hazard Ratio (HR) for PFS, variable AR-V7 Positive / Hazard Ratio (HR) for PFS, variable Prior use of Abiraterone / Hazard Ratio (HR) for PSA-PFS, variable AR-FL Level (log) / Hazard Ratio (HR) for PSA-PFS, variable AR-V7 Positive / Hazard Ratio (HR) for PSA-PFS, variable Prior use of Abiraterone: propensity score weighted multivariable model; for hazard ratio (HR) for OS, AR-V7-positive vs AR-V7-negative / hazard ratio (HR) for PFS, AR-V7-positive vs AR-V7-negative / hazard ratio (HR) for PSA-PFS, AR-V7-positive vs AR-V7-negative: univariate, log-rank
[1] = AR-V7-negative patients (baseline CTCs)
[2] = AR-V7-positive patients (baseline CTCs)
[3] = no previous alternative AR-directed agent (abiraterone/enzalutamide)
[4] = no previous alternative AR-directed agent (abiraterone/enzalutamide), AR-V7 [+]
[5] = no previous alternative AR-directed agent (abiraterone/enzalutamide), AR-V7 [−]
[6] = previous alternative AR-directed agent (abiraterone/enzalutamide), AR-V7 [+]
[7] = previous alternative AR-directed agent (abiraterone/enzalutamide), AR-V7 [−]
[8] = previous alternative AR-directed agent (abiraterone/enzalutamide)

Method: Men with metastatic CRPC who were beginning standard-of-care treatment with enzalutamide or abiraterone were prospectively enrolled. Patients were required to have histologically-confirmed prostate adenocarcinoma, progressive disease despite “castration levels” of serum testosterone (<50 ng/dL; and androgen-deprivation therapy had to continue), and radiographic metastases on computed tomography (CT) or technetium-99 bone scans. […] Patients were excluded if they planned to receive additional concurrent anticancer therapies. Prior chemotherapy was permitted, as was previous treatment with the alternative AR-directed agent (i.e. prior abiraterone use in enzalutamide-treated patients, and vice versa).
This was a prospective study evaluating the ability of baseline (pretreatment) AR-V7 status from CTCs (circulating tumor cells) to predict response or resistance to AR-directed agents.
Follow-up was prospectively defined: patients had PSA measurements every 1-2 months, as well as CT (chest/abdomen/pelvis) and technetium-99 bone scans every 2-4 months.
CTC analyses were conducted using the commercially-available ALERE™ CTC AdnaTest platform (AdnaGen, Langenhagen, Germany). Isolation and enrichment of CTCs was performed using the ProstateCancerSelect kit, and mRNA expression analyses were performed using the ProstateCancerDetect kit with multiplexed reverse-transcription polymerase-chain-reaction (qRT-PCR) primers to detect the presence of CTCs, and custom primers designed to detect the full-length-AR (AR-FL) and AR splice variant-7 (AR-V7) (Hu, R., et al. (2009) Cancer Res 69, 16-22). Relative AR-V7 transcript abundance was determined by calculating the ratio of AR-V7 to AR-FL (Hu, R., et al. (2009) Cancer Res 69, 16-22; Watson, P. A., et al. (2010) Proceedings of the National Academy of Sciences).
Best PSA response (maximal percentage PSA decrease from baseline) for each patient was also determined.
Secondary endpoints included freedom-from-PSA-progression (PSA-progression-free-survival; PSA-PFS), freedom-from-clinical/radiographic-progression (progression-free-survival; PFS), and overall survival (OS). PSA-progression was defined as a ≥25% increase in PSA from nadir (and by ≥2 ng/mL), requiring confirmation ≥4 weeks later (PCWG2 criteria) (Scher, H. I., et al. (2008) Journal of Clinical Oncology: Oficial Journal of the American Society of Clinical Oncology 26, 1148-1159).

SMILES	median PSA-progression-free survival (PSA-PFS) (AR-V7-negative patients) [months]	median clinical/radiographic progression-free survival (PFS) (AR-V7-negative patients) [months]	PSA response rate (≥50% PSA decline from baseline) [1] [%]	median overall survival (OS) (AR-V7-negative patients)	median PSA-progression-free survival (PSA-PFS) (AR-V7-positive patients) [months]	median clinical/radiographic progression-free survival (PFS) (AR-V7-positive patients) [months]	PSA response rate (≥50% PSA decline from baseline) [2] [%]	median overall survival (OS) (AR-V7-positive patients) [months]	PSA response rate (≥50% PSA decline from baseline, maintained ≥4 weeks) [%]	HR for PFS, AR-V7 presence	HR for PSA-PFS, AR-V7 presence	HR for PFS, AR-FL levels	HR for PSA-PFS, AR-FL levels	HR for PFS, previous use of alternative AR-directed agent	HR for PSA-PFS, previous use of alternative AR-directed agent	PSA Response [4] [%]	PSA Response [5] [%]	PSA Response [6] [%]	PSA Response [7] [%]	Hazard Ratio (HR) for PFS, variable AR-FL Level (log)	further results
C[C@]12CC[C@H](O)CC1=CC[C@@H]1[C@@H]2CC[C@]2(C)C(c3cccnc3)=CC[C@@H]12 [abiraterone]	> 5.3	> 6.3	68.0	> 11.9 months	1.3	2.3	0	10.6	54.8	7.6	15.7	1.1	1.0	1.9	0.9	0	74	0	0	1.36	PFA-PFS HR, AR-V7 [+] vs [−] [3]: HR 41.0; PFS HR, AR-V7 [+] vs [−] [3]: HR 28.2; Hazard Ratio (HR) for PFS, variable AR-V7 Positive: 5.25; Hazard Ratio (HR) for PFS, variable Prior use of Abiraterone: 1.72; Hazard Ratio (HR) for PSA-PFS, variable AR-FL Level (log): 1.05; Hazard Ratio (HR) for PSA-PFS, variable AR-V7 Positive: 17.51; Hazard Ratio (HR) for PSA-PFS, variable Prior use of Abiraterone: 0.61; hazard ratio (HR) for OS, AR-V7-positive vs AR-V7-negative: 12.7; hazard ratio (HR) for PFS, AR-V7-positive vs AR-V7-negative: 16.5; hazard ratio (HR) for PSA-PFS, AR-V7-positive vs AR-V7-negative: 16.1
CNC(=O)c1ccc(N2C(=S)N(c3ccc(C#N)c(C(F)(F)F)c3)C(=O)C2(C)C)cc1F [enzalutamide]	6.0	6.1	52.6	not reached	1.4	2.1	0	5.5	32.3	3.0	3.1	1.7	1.4	2.6	2.5	0	80	0	22	1.64	PFA-PFS HR, AR-V7 [+] vs [−] [8]: HR 3.34; PFS HR, AR-V7 [+] vs [−] [8]: HR 2.93; Hazard Ratio (HR) for PFS, variable AR-V7 Positive: 3.38; Hazard Ratio (HR) for PFS, variable Prior use of Abiraterone: 1.54; Hazard Ratio (HR) for PSA-PFS, variable AR-FL Level (log): 1.33; Hazard Ratio (HR) for PSA-PFS, variable AR-V7 Positive: 3.40; Hazard Ratio (HR) for PSA-PFS, variable Prior use of Abiraterone: 2.66; hazard ratio (HR) for OS, AR-V7-positive vs AR-V7-negative: 6.9; hazard ratio (HR) for PFS, AR-V7-positive vs AR-V7-negative: 8.5; hazard ratio (HR) for PSA-PFS, AR-V7-positive vs AR-V7-negative: 7.4
